Results on 14 compounds are retold here after patent US20010036955A1, “Method of inhibiting angiogenesis” (Genentech, Inc., priority 1998, published 2001).

*1 amine or outer side, *2 acyl side, *3 side chain or, on linkers, in order; H or OH if unused. Where a SMILES comes first, the peptide text is derived from it. Bridges are numbered along the chain shown (N, C = ends). Roman numbers before positions name the chains, in order. [ ]: non-standard residue; d: D form. Actinocin(9to1) = Cc1c2oc3c(C)ccc(C(=O)[*:1])c3nc-2c(C(=O)[*:2])c(N)c1=O; NMeV = CN[C@H](C(=O)O)C(C)C; Sar = CNCC(=O)O

Type in all cases: cell-based, human
In assay [1] the test system is HUVEC tube formation. Description: Endothelial tube assay (number of tubes, three-dimensional collagen gels). Particulars: for IC50: Homo sapiens, HUVEC in collagen gels with bFGF, VEGF and PMA, tubes counted at 48 hr, read-out: inhibition of tube formation, IC50; for inhibition of tube formation (FIG. 3B): at 100 μM; for formation of tube-like structures: endothelial cells in three-dimensional type I collagen lattice. The protocol: In this model, endothelial cells are suspended in a three-dimensional collagen lattice of type I collagen and undergo rapid morphogenesis. Within 4 hr numerous vacuoles are observed in the majority of endothelial cells; at 24 hr the formation of tube-like structures can be observed and at 48 hr an interconnected network of tube-like structures is observed.
Collagen gels were formed by mixing together ice-cold gelatin solution (10× M199, H2O, 0.53M NaHCO3, 200 mM L-glutamine, type I collagen, 0.1M NaOH, 100:27.2:50:10:750:62.5 by volume) and cells in 1× basal medium at a concentration of 3×10^6 cells/ml at a ratio of 4 volumes gelatin solution: 1 volume of cells. After gelation at 37 for 30 min, the gels were overlaid with IX basal medium consisting of M199 supplemented with 1%FBS, 1× ITS, 2 mM L-glutamine, 50 μg/ml ascorbic acid, 26.5 mM NaHCO3, 100 U/ml penicillin and 100 U/mil streptomycin supplemented with 40 ng/ml BFGF, 40 ng/ml VEGF and 80 nM phorbol myristate acetate (PMA). All drugs were added to the IX basal medium immediately after gelation. To quantitate tube formation, the number of tubes per high power (20× field) was determined 48 hr after addition of the basal medium Five independent fields separated by 100 μm optical sections were assessed for each well. Cytotoxicity was assessed using an XTT kit from Boehringer Mannheim (Indianapolis, Ind.).

For the next assay, the system named is HUVEC proliferation. Briefly: Proliferation assay (BrdU incorporation). Particulars: type I collagen-coated surface, VEGF, bFGF and PMA. The protocol: Cells were cultured in above medium in the presence of drugs or vehicle for 4 hr. 5 μl (100 μM) of 5′-bromo-2′-deoxyuridine (BrdU) was added in a final volume of 100 μl/well and cells were incubated for another 20 hr. BrdU incorporation was evaluated by an ELISA kit from Boehringer Mannheim (Indianapolis, Ind.).
In general terms: Uptake of a labelled nucleoside into DNA is a usual measure of proliferation.

Assay [2] relates to HUVEC tube formation. Description: Endothelial tube assay of Example 7 (average tube length, 3-D type I collagen gels). The protocol:
Collagen gels were formed by mixing together ice-cold gelation solution (IOX M199, H2O, 0.53M NaHCO3, 200 mM L-glutamine, type I collagen, 0.1M NaOH, 100:27.2:50:10:750:62.5 by volume) and cells in 1× basal medium (see below) at a concentration of 3×10^6 cells/ml at a ratio of 4 volumes gelation solution: 1 volume of cells (18). After gelation at 37° C. for 30 min, the gels were overlaid with 1× basal medium consisting of M199 supplemented with […], 1× ITS, 2 mM L-glutamine, […] ascorbic acid, 26.5 mM NaHCO3, 100 U/ml penicillin and 100 U/ml streptomycin supplemented with 40 ng/ml bFGF, 40 ng/ml VEGF, 80 nM PMA or the combination of PMA (80 nM), bFGF and VEGF (40 ng/ml each). All drugs were added to the 1× basal medium immediately after gelation. To quantify tube formation, the average tube length was determined by measuring total tube length (long axis) in three consecutive layers of a low power (10×) field using Openlab software (Improvision Inc, England). Each layer was separated by 100 μm.

For the next assay, the system named is MMP-9 mRNA. Description: Real time RT-PCR (Taqman) assay in HUVEC, Example 7. Particulars: for MMP-9 mRNA levels: 40 ng/ml, at 4 h and 24 h. The protocol: (§1) Total RNA was extracted from HUVEC cultured in 3-D type I collagen gels for various times in 1× basal medium supplemented with 40 ng/ml bFGF, 40 ng/ml VEGF, […] PMA or the combination of PMA (80 nM), bFGF and VEGF (40 ng/mil each). […] For all mRNAs evaluated a sample of total RNA (100 ng) was added to a 50 μl RT-PCR reaction mixture according to the manufacturer's protocol (Roche Molecular Systems, Inc., Branchburg, N.J.). The thermal cycling conditions included 1 cycle at 48° C. for 30 min, 1 cycle at 95° C. for 10 min, 40 cycles at 95° C. for 15 s, at 60° C. for 1 min, and finally hold at 25° C. for 2 min. Standard curves for expression of each gene were generated by serial dilution of the total RNA isolated from U937 cells. […] Therefore, the relative mRNA expression of each gene was normalized to the level of GAPDH in the same RNA preparation.
In general terms: Real-time PCR tracks product formation cycle by cycle.

Another assay has as its system MMP-2 secretion. Briefly: Zymographic assay of HUVEC conditioned media. The protocol:
(§2) The presence of gelatinases MMP-2 and -9 in conditioned media from cultured HUVEC in 3-D type I collagen gels was analyzed by zymography. Media from different treatments or from different time points were concentrated and then 10 μl aliquots were mixed with 2 × sample buffer without reducing agent or heating. Samples were loaded on a 10% polyacrilamide gel containing 0.1% gelatin (Novex, San Diego, Calif.) for electrophoresis. In addition to using regular molecular weight markers the MMP-2 and -9 zymographic standards (Chemicon, Temecula, Calif.) were used as standards for gelatinases. The gels were incubated for 30 min at room temperature in renaturing buffer and in developing buffer for overnight at 37° C., and then stained with 0.25% Coomassie brilliant blue (Sigma). Gelatinase activity was identified as lightly stained or clear bands following destaining.

The test system of a further assay is MMP-9 secretion. Description: Zymographic assay of HUVEC conditioned media. On the procedure: as §2
A further assay deals with MMP-2 mRNA. Briefly: Real time RT-PCR (Taqman) assay in HUVEC, Example 7. The conditions noted are these: 100 μM; 24 h. The protocol: as §1
[3] abbreviates: at concentrations of up to 100 μM.
The mark [4] stands for this setting: PMA 0.8, 8, 80 and 800 nM for 24 h.

With `Cc1c(C)c2c(c(C)c1O)CCC(C)(COc1ccc(CC3SC(=O)NC3=O)cc1)O2` (single isomer, unassigned; (+)) [troglitazone, (+)-5-[[4-[(3,4-dihydro-6-hydroxy-2,5,7,8-tetramethyl-2H-1-benzopyran-2-yl)methoxy]phenyl]methyl]-2,4-thiazolidinedione], in the assay on HUVEC tube formation [1], the IC50 was 6.2 µM.

For the compound `CC1=C(/C=C/C(C)=C\C=C\C(C)=C\C(=O)O)C(C)(C)CCC1` [9-cis-retinoic acid], in the assay with HUVEC tube formation [1] (9-cis-retinoic acid 30 μM alone), the “effect on tube formation” value is listed as “no significant effect”.

In the case of `CN(CCOc1ccc(CC2SC(=O)NC2=O)cc1)c1ccccn1` (stereo not shown) [BRL49653, 5-[4-[2-[N-methyl-N-(2-pyridyl)amino]ethoxy]benzyl]thiazolidine-2,4-dione], in the assay with HUVEC proliferation (Homo sapiens, HUVEC, read-out: inhibition of endothelial cell (HUVEC) proliferation, IC50), the IC50 was found to be 15.7 µM.

Regarding `CCCc1c(OCCCCc2nnn[nH]2)ccc(C(C)=O)c1O` [LY 171883], in the assay on HUVEC tube formation [1], the “inhibition of tube formation (FIG. 3B)” value was “do not inhibit”. The “inhibition of tube formation” value in the assay with HUVEC tube formation [1] (setting [3]) is recorded as “did not significantly inhibit”.

On to `CCCCC[C@H](O)/C=C/[C@H]1[C@H](O)CC(=O)[C@@H]1CCCCCCC(=O)O` [PGE1], for which the “effect on HUVEC proliferation” value with HUVEC proliferation was “did not affect”.

Regarding `CCCCC[C@H](O)/C=C/[C@H]1[C@H](O)CC(=O)[C@@H]1C/C=C\CCCC(=O)O` [PGE2], the “effect on HUVEC proliferation” value in the assay on HUVEC proliferation is reported as “did not affect”.

With `CCCCCCCCCCCCCC(=O)O[C@@H]1[C@@H](C)[C@@]2(O)[C@@H](C=C(CO)C[C@]3(O)C(=O)C(C)=C[C@@H]23)[C@@H]2C(C)(C)[C@]12OC(C)=O` [PMA, phorbol 12-myristate 13-acetate], in the assay with HUVEC tube formation [2] (setting [4]), the “concentration giving maximal induction of tube formation” value worked out at 80 nM and the “tube formation (average tube length)” value is “dose-dependent increase”. Further, the “increase of MMP-9 mRNA levels between 24 h and 4 h” value in the assay with MMP-9 mRNA (HUVEC in 3-D collagen gels, PMA 80 nM, bFGF and VEGF 40 ng/ml each) was “more than 2 fold”. In addition, the “MMP-2 secretion into the culture medium” value with MMP-2 secretion (setting [4]) is reported as “dose-dependent stimulation”. For the same compound, in the assay on MMP-2 secretion (gelatin zymography, PMA in the absence or presence of FGF and VEGF), the “active MMP-2 in supernatants compared with either growth factor alone” value is “more active MMP-2”. Besides, the “MMP-9 secretion into the culture medium” value in the assay with MMP-9 secretion (setting [4]) is listed as “dose-dependent stimulation”. The “zymogen form of MMP-9 (92 kD) in culture supernatants” value in the assay with MMP-9 secretion (gelatin zymography, PMA or PMA in combination with bFGF and VEGF) is on record as “detected”.

On to `Cc1cccc(Nc2cc(Cl)nc(SCC(=O)O)n2)c1C` [WY 14643], for which, in the assay with HUVEC tube formation [1], the “inhibition of tube formation (FIG. 3B)” value was “do not inhibit”. Also, the “inhibition of tube formation” value in the assay with HUVEC tube formation [1] (setting [3]) is on record as “did not significantly inhibit”. For the same compound, the HUVEC tube formation result in the assay with HUVEC tube formation [2] (100 μM, 3-D collagen gels) is reported as “do not inhibit”. Besides, the “MMP-2 mRNA expression” value with MMP-2 mRNA is reported as “did not alter”. Besides, the “MMP-9 mRNA expression” value in the assay on MMP-9 mRNA (100 μM, 24 h) is on record as “did not alter”. Further, the MMP-2 protein secretion entry in the assay on MMP-2 secretion (100 μM, 24 h) is on record as “did not alter”. The MMP-9 protein secretion result in the assay with MMP-9 secretion (100 μM, 24 h) is reported as “did not alter”.

For `Cc1c2oc3c(C)ccc(C(=O)N[C@@H]4C(=O)N[C@H](C(C)C)C(=O)N5CCC[C@H]5C(=O)N(C)CC(=O)N(C)[C@@H](C(C)C)C(=O)O[C@@H]4C)c3nc-2c(C(=O)N[C@@H]2C(=O)N[C@H](C(C)C)C(=O)N3CCC[C@H]3C(=O)N(C)CC(=O)N(C)[C@@H](C(C)C)C(=O)O[C@@H]2C)c(N)c1=O` [actinomycin D] (I: T[dV]P[Sar][NMeV] / II: T[dV]P[Sar][NMeV]; ester I:1-I:C, II:1-II:C; linker I:N-II:N via Actinocin(9to1)), the “formation of tube-like structures” value with HUVEC tube formation [1] is given as “completely block”.

On to `CC1(COc2ccc(CC3SC(=O)NC3=O)cc2)CCCCC1` (stereo not shown) [ciglitizone], for which the IC50 in the assay with HUVEC tube formation [1] stood at 2.7 µM.

In the case of `C[C@@H]1C[C@@H]([C@H](O)CC2CC(=O)NC(=O)C2)C(=O)[C@@H](C)C1` [cycloheximide], the “formation of tube-like structures” value in the assay with HUVEC tube formation [1] was “completely block”.

On to `CCCCCCCC/C=C\CCCCCCCCCCCC(=O)O` [erucic acid], for which the “inhibition of tube formation” value with HUVEC tube formation [1] (200 μM) is reported as “did not significantly inhibit”. The “inhibition of tube formation (FIG. 3B)” value in the assay on HUVEC tube formation [1] is “do not inhibit”.

Turning to VEGF, the “MMP-9 mRNA levels” value with MMP-9 mRNA is “at or below the limits of detection”.

As for “bFGF: recombinant basic fibroblast growth factor”, the “MMP-9 mRNA levels” value in the assay on MMP-9 mRNA is reported as “at or below the limits of detection”.
